Experimental data taken from publication PMC3953729 (FEBS Open Bio, 2014).

How the values were obtained:
[1] = target: cyclohexanone monooxygenase (CHMO) (Acinetobacter johnsonii, UniProt P12015, L323C/A325C); conditions: oxidised enzyme, engineered disulfide formed
[2] = target: cyclohexanone monooxygenase (CHMO) (Acinetobacter johnsonii, UniProt P12015); assay: FAD absorbance change on titration; format: binding

`NC(=O)c1ccc[n+]([C@@H]2O[C@H](COP(=O)(O)OP(=O)(O)OC[C@H]3O[C@@H](n4cnc5c(N)ncnc54)[C@H](OP(=O)(O)O)[C@@H]3O)[C@@H](O)[C@H]2O)c1` [NADP^+] gave a Kd [1] of 15 µM and a Kd [2] of 28 µM.
